The values that follow come from PubChem BioAssay (NCI).

What all share (assay): NCI anticancer screen, dose series, 48 h
The subject of assay [1] is UO-31 renal.
In assay [2] the test system is PC-3 prostate.
Assay [3] deals with SF-295 CNS.
For assay [4], the system named is K-562 leukemia.
The test system of assay [5] is OVCAR-8 ovarian.
Assay [6] has as its system OVCAR-4 ovarian.
Assay [7] relates to BT-549 breast.
In assay [8] the test system is NCI/ADR-RES ovarian.
The subject of assay [9] is HOP-92 NSCLC.
In assay [10] the test system is SW-620 colon.

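Growth conditions: 96-well plates. Treatment: test compound, 48 hours, 5 concentrations. Analysis: linear interpolation between bracketing concentrations; unreached endpoints set to highest concentration. Here, GI50 denotes the concentration required for 50% inhibition of growth. TGI is the concentration that stops growth completely.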 Some results are limits rather than exact numbers.

Regarding `C[C@@H](Oc1cc(-c2cnn(C3CCNCC3)c2)cnc1N)c1c(Cl)cc(F)cc1Cl`, the GI50 in [1] was 3.16 µM; in assay [2], 1990 nM; in assay [3], 505 nM; in assay [4] it was 229 nM; in assay [5] it was 3.83 µM; in [6], 2860 nM. In addition, the GI50 in assay [7] was 4.08 µM; in assay [8], 5.81 µM; in assay [9] it was 0.73 µM; in assay [10], 893 nM. For the same molecule, the TGI in assay [1] was found to be 13.2 µM; in assay [2], 14.7 µM; in [3], 7.23 µM; in assay [4], 3.88 µM; in assay [5], 16.3 µM; in [6], 10.8 µM. In addition, the TGI in [7] was determined as 13 µM; in assay [8], 20.1 µM; in assay [9], 3.6 µM; in assay [10] it was 8.13 µM.
`O=c1[nH]c2ccccc2n1C1CCN(CCOc2ccccc2)CC1`: the GI50 is 34.1 µM in assay [1]; 10700 nM in [2]; 2870 nM in [3]; 6850 nM in assay [4]; 13.3 µM in assay [5]; 5860 nM in assay [6]. Further, the GI50 in assay [7] is 34.2 µM; in assay [8], 11.5 µM; in assay [9] it was 22.9 µM; in assay [10] it was 50100 nM. For the same molecule, the TGI in assay [1] is more than 100 µM; in [2], more than 100 µM; in [3], 19.2 µM; in assay [4], more than 100 µM; in assay [5], more than 100 µM; in assay [6], more than 100 µM. Further, the TGI in assay [7], in [8], in assay [9] and in assay [10] was more than 100 µM each time.
On to `Cc1ccc(NC2=CC(=O)C(=O)c3ccccc32)cc1`, for which the GI50 is 1.17 µM in assay [1]; 1870 nM in assay [2]; 1700 nM in assay [3]; 3470 nM in assay [4]; 2.4 µM in [5]; 1390 nM in [6]. Also, the GI50 in [7] was 1.73 µM; in [8], 2.17 µM; in assay [9], 5.71 µM; in assay [10] it was 1920 nM. The TGI in assay [1] was 3.79 µM; in [2] it was 15.7 µM; in assay [3], 3.15 µM; in assay [4], more than 100 µM; in [5], 7.82 µM; in assay [6] it was 2.72 µM. Besides, the TGI in assay [7] was 3.31 µM; in assay [8], 17.4 µM; in assay [9], 20.2 µM; in assay [10], 4.01 µM.
On to `CCOC(=O)c1cc2c(n1Cc1cc(OC)cc(OC)c1)-c1oncc1CC2`, for which the GI50 in assay [1] was 6.37 µM; in [2] it was 383 nM; in [3], 51.8 nM; in assay [4], 51.8 nM; in assay [5] it was 0.475 µM; in assay [6], 1060 nM. Moreover, the GI50 in assay [7] was 4.37 µM; in assay [8], 0.0486 µM; in [9], 45.2 µM; in assay [10], 85.9 nM. Besides, the TGI in assay [1], in assay [2], in assay [4], in assay [5], in [6] and in assay [7] was more than 100 µM in each case. Moreover, the TGI in assay [9] and in assay [10] was more than 100 µM each time.
For `COc1ccc(C(Nc2ccccn2)c2cc(C(C)(C)C)cc(C(C)(C)C)c2O)cc1` (stereo not drawn), the TGI in assay [1] is more than 100 µM; in assay [2], more than 100 µM; in assay [3], 59.3 µM; in [4], more than 100 µM; in assay [5], more than 100 µM; in assay [6] it was more than 100 µM. The TGI in assay [7] was 56.8 µM; in assay [8], more than 100 µM; in [9], more than 100 µM; in assay [10], more than 100 µM.
On to `CCC(C(=O)[C@@H](C)[C@@H](O)[C@H](C)[C@@H]1O[C@@H]([C@@H](CC)C(=O)ONC(=O)c2ccccc2)CC[C@@H]1C)[C@H]1O[C@]2(C=CC(=O)[C@]3(CC[C@@](C)([C@H]4CC[C@](O)(CC)[C@H](C)O4)O3)O2)[C@H](C)C[C@@H]1C` (stereo partly drawn), for which the GI50 in assay [1] was 0.403 µM; in assay [2] it was 77.5 nM; in [3] it was 384 nM; in assay [4], 171 nM; in assay [5], 0.251 µM; in assay [6], 1070 nM. Further, the GI50 in assay [7] was 0.146 µM; in [8], 0.374 µM; in assay [9] it was 0.141 µM; in assay [10], 582 nM. Also, the TGI in assay [1] was 1.79 µM; in assay [2] it was 1.99 µM; in assay [3] it was 2.08 µM; in assay [4], 1.79 µM; in [5], 2.77 µM; in assay [6], more than 40.1 µM. For the same molecule, the TGI is 1.97 µM in [7], 2.28 µM in assay [8], 1.87 µM in [9] and 2.71 µM in [10].
On to `O=C(O)c1cc(Cl)cc(Cc2cc(Cl)cc(C(=O)O)c2O)c1O`, for which the TGI in assay [1], in assay [2], in [3], in assay [4], in [5] and in [6] was more than 100 µM each time. Moreover, the TGI in assay [7], in assay [8], in assay [9] and in assay [10] was more than 100 µM in each case.
On to `Nc1nc(N)c(-c2ccc(Cl)c(Cl)c2)c(CP(Cl)(Cl)(Cl)Br)n1`, for which the GI50 in assay [1] is 17.5 µM; in [2], 5310 nM; in assay [3], 6700 nM; in assay [4], 2790 nM; in assay [5], 6.51 µM; in assay [6] it was 53800 nM. Also, the GI50 in assay [7] was 40.7 µM; in assay [8], 11.7 µM; in [9] it was 12.6 µM; in [10], 4200 nM. Besides, the TGI in [1], in [2], in [3], in assay [4], in assay [5] and in [6] was more than 100 µM in each case. In addition, the TGI in assay [7] was more than 100 µM; in assay [8], more than 100 µM; in assay [9], 54.3 µM; in [10], more than 100 µM.
